From patent US8404677B2, “Kinase inhibitors” (Genosco, priority 2009, dated 2013)

Tests used:
TK-10 = assay: cells; assay type: cell-based; details: TK-10 (Renal Cancer)
SR = assay: cells; assay type: cell-based; details: SR (Leukemia)
truncated human FAK = target: T1, truncated human FAK (Homo sapiens, UniProt Q05397); assay: Inhibition of enzymatic kinase activity (LANCE Ulight); assay type: biochemical; details: at 1 μM concentration; read-out: FAK percentage inhibition
T1 construct: truncated human FAK, RET, FLT3, JAK2, and LRRK2 (CARNA BIOSCIENCES™); purchased Carna Biosciences

truncated human LRRK2 = truncated human LRRK2 (Homo sapiens, UniProt Q5S007); assay: as above; assay type: biochemical
LOX IMVI = assay: cells; assay type: cell-based; details: LOX IMVI (Melanoma)
OVCAR-4 = assay: cells; assay type: cell-based; details: OVCAR-4 (Ovarian Cancer)
MDA-MB-468 = assay: cells; assay type: cell-based; details: MDA-MB-468 (Breast Cancer)
NCI-H460 = assay: cells; assay type: cell-based; details: NCI-H460 (NSCLC)
SK-MEL-5 = assay: cells; assay type: cell-based; details: SK-MEL-5 (Melanoma)
SF-539 = assay: cells; assay type: cell-based; details: SF-539 (CNS Cancer)
RXF 393 = assay: cells; assay type: cell-based; details: RXF 393 (Renal Cancer)
SYK = SYK (Homo sapiens, UniProt P43405); assay: Inhibition of enzymatic kinase activity (LANCE Ulight); assay type: biochemical; design: Purified full-length human SYK, ZAP70, PIM1, PYK2; purchased Carna Biosciences; details: at 1 μM concentration; read-out: SYK percentage inhibition
Method: (§1) Inhibition of Enzymatic SYK, ZAP70, PYK2, FAK, PIM1, RET, FLT3, JAK2 and LRRK2 Kinase Activity
(§2) Compounds of the invention were initially diluted to 10 mM in 100% DMSO (CALBIOCHEM™) for storage and made into kinase buffer solution to create a compound concentration ranging from 1 uM and 10 uM. Serial dilutions of compounds of the invention were dispensed into a 96-well plate (GREINER BIOSCIENCES™) at 6 μL each. Purified full-length human SYK, ZAP70, PIM1, PYK2 and truncated human FAK, RET, FLT3, JAK2, and LRRK2 (CARNA BIOSCIENCES™) were diluted in kinase buffer and added to the compound solutions and pre-incubated for 30 minutes at room temperature (1 hour for PYK2). […] The reaction mixture was incubated for 1 hour (2 hours for PYK2). Following the incubation, the stop solution made with EDTA, water, and Lance detection buffer ([…]™) was added (12 μL each) to stop phosphorylation.

PYK2 = PYK2 (Homo sapiens, UniProt Q14289); assay: as above; assay type: biochemical; design: Purified full-length human SYK, ZAP70, PIM1, PYK2; purchased Carna Biosciences; details: at 1 μM concentration; read-out: PYK2 percentage inhibition
Method: as §1, §2

OVCAR-5 = assay: cells; assay type: cell-based; details: OVCAR-5 (Ovarian Cancer)
RPMI-8226 = assay: cells; assay type: cell-based; details: RPMI-8226 (Leukemia)
HL-60(TB) = assay: cells; assay type: cell-based; details: HL-60(TB) (Leukemia)
NCI/ADR-RES = assay: cells; assay type: cell-based; details: NCI/ADR-RES (Ovarian Cancer)
786-0 = assay: cells; assay type: cell-based; details: 786-0 (Renal Cancer)
[1] = Homo sapiens, read-out: LC50 (the source's name)

Chain of truncated human LRRK2 (Q5S007 1879-2138 limits assumed): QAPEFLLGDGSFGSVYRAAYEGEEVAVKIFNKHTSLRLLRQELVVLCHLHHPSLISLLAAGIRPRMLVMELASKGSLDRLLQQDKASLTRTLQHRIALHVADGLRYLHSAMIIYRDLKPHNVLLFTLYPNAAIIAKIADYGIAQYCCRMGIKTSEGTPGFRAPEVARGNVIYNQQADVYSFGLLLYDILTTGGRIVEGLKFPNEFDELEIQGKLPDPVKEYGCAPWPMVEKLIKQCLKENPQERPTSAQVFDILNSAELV
Chain of PYK2 (Q14289 whole entry): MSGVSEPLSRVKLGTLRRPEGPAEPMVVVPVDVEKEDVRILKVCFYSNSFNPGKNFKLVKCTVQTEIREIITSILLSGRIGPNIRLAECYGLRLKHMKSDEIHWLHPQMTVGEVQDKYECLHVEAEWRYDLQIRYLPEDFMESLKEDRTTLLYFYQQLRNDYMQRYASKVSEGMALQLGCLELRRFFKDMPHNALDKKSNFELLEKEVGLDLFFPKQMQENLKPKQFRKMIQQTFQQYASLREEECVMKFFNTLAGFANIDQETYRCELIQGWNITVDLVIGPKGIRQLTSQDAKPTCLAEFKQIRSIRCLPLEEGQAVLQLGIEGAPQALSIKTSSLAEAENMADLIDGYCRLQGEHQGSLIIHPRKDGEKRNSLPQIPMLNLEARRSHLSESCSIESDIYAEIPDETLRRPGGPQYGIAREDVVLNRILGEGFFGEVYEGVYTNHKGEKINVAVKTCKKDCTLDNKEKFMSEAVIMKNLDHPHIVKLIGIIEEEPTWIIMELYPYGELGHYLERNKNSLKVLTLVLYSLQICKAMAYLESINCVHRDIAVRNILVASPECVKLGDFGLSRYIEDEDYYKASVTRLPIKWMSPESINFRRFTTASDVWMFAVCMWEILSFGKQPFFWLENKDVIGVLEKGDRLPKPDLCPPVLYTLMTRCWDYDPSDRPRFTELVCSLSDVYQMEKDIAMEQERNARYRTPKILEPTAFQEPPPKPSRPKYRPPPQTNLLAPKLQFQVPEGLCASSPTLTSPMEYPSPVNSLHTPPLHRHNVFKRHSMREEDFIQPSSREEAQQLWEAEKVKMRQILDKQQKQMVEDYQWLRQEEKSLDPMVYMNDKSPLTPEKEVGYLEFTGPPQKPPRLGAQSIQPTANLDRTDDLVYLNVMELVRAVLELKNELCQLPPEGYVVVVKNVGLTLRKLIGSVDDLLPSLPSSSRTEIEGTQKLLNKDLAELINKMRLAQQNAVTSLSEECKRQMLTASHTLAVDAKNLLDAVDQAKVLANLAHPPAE
T1 sequence (Q05397 376-1052 limits assumed): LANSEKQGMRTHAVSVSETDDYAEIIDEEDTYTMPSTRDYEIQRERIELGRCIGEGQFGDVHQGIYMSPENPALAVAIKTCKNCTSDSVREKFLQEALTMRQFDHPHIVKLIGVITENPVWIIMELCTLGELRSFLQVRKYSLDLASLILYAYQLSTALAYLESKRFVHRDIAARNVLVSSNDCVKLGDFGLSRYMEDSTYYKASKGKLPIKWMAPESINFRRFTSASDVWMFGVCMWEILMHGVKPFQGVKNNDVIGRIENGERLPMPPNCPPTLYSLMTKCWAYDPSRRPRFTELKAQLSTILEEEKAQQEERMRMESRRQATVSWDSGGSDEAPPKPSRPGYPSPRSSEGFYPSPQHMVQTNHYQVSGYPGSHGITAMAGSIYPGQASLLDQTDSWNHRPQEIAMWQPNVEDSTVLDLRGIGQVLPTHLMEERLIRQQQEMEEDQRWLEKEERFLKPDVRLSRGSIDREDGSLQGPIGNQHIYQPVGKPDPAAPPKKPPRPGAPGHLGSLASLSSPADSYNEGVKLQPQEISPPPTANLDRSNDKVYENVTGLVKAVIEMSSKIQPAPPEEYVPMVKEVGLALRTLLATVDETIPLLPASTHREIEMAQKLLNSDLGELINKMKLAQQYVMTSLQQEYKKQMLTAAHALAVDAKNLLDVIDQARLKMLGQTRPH

## O=c1[nH]ccc2nc(N3CCC(O)CC3)nc(Nc3cccc(C(F)(F)F)c3)c12 [Compound 6, 2-(4-hydroxypiperidin-1-yl)-4-(3-(trifluoromethyl)phenylamino)pyrido[4,3-d]pyrimidine-5(6H)-one]
TK-10; Homo sapiens
  GI50: 6.03 µM
  IC50: 36.3 µM
TK-10; [1]
  CC50: 100 µM
TK-10
  TGI: 44.7 µM
SR; Homo sapiens
  GI50: 0.708 µM
  IC50: 2.51 µM
SR; [1]
  CC50: 100 µM
SR
  TGI: 26.9 µM
Truncated human FAK
  inhibition at 1 µM: 78%
Truncated human LRRK2
  IC50: 0.054 µM
LOX IMVI; Homo sapiens
  GI50: 1.41 µM
  IC50: 2.63 µM
LOX IMVI; [1]
  CC50: 91.2 µM
LOX IMVI
  TGI: 16.6 µM
OVCAR-4; Homo sapiens
  GI50: 1.74 µM
  IC50: 9.12 µM
  LC50: 100 µM
OVCAR-4
  TGI: 36.3 µM
MDA-MB-468; Homo sapiens
  GI50: 1.78 µM
  IC50: 4.68 µM
MDA-MB-468; [1]
  CC50: 100 µM
MDA-MB-468
  TGI: 7.08 µM
NCI-H460; Homo sapiens
  GI50: 1.62 µM
  IC50: 2.4 µM
NCI-H460; [1]
  CC50: 64.6 µM
NCI-H460
  TGI: 15.1 µM
SK-MEL-5; Homo sapiens
  GI50: 1.23 µM
  IC50: 2.14 µM
SK-MEL-5; [1]
  CC50: 5.13 µM
SK-MEL-5
  TGI: 2.51 µM
SF-539; Homo sapiens
  GI50: 5.25 µM
  IC50: 13.5 µM
SF-539; [1]
  CC50: 100 µM
SF-539
  TGI: 38.9 µM
RXF 393; Homo sapiens
  GI50: 1.45 µM
  IC50: 21.4 µM
RXF 393; [1]
  CC50: 100 µM
RXF 393
  TGI: 23.4 µM
SYK
  inhibition at 1 µM: 88%
PYK2
  inhibition at 1 µM: 83%
OVCAR-5; Homo sapiens
  GI50: 28.2 µM
  IC50: 74.1 µM
OVCAR-5; [1]
  CC50: 100 µM
OVCAR-5
  TGI: 93.3 µM
RPMI-8226; Homo sapiens
  GI50: 2.95 µM
  IC50: 5.5 µM
RPMI-8226; [1]
  CC50: 100 µM
RPMI-8226
  TGI: 91.2 µM
HL-60(TB)
  TGI: 5.01 µM
HL-60(TB); Homo sapiens
  GI50: 0.871 µM
  IC50: 1.86 µM
HL-60(TB); [1]
  CC50: 100 µM
NCI/ADR-RES; Homo sapiens
  GI50: 2.34 µM
  IC50: 4.37 µM
NCI/ADR-RES; [1]
  CC50: 100 µM
NCI/ADR-RES
  TGI: 7.41 µM
786-0
  TGI: 100 µM
786-0; Homo sapiens
  GI50: 2.04 µM
  IC50: 8.13 µM
786-0; [1]
  CC50: 100 µM
